Measured values reported in BigSolDB 2.1.

CN/C(=C\[N+](=O)[O-])NCCSCc1csc(CN(C)C)n1
solubility (mole fraction)
Conditions	in acetone	in ethanol	in ethyl acetate	in methanol	in water
273.15 K	0.00283	0.00287	0.00029	0.0167	0.0225
278.15 K	0.0034	0.00381	0.00033	0.0211	0.0232
283.15 K	0.00432	0.00487	0.00043	0.027	0.0238
288.15 K	0.00552	0.00653	0.00058	0.0347	0.0247
293.15 K	0.00701	0.00867	0.00063	0.0447	0.0257
298.15 K	0.00806	0.0133	0.00082	0.0589	0.0297
303.15 K	0.0103	0.0167	0.00093	0.0765	0.0325
308.15 K	0.0128	0.0212	0.00148	0.103	0.036
313.15 K	0.0164	0.0301	0.00187	0.147	0.0402
318.15 K	0.0235	0.0376	0.00219	0.203	0.0463
323.15 K	0.0385	0.062	0.00269	–	0.0535
328.15 K	–	0.0955	0.00343	–	0.0653
333.15 K	–	0.179	0.0042	–	0.0809
338.15 K	–	–	0.0055	–	0.109
343.15 K	–	–	–	–	0.164
